Measurements taken from patent publication US20230263822A1, “MODULATION OF FACTOR 11 EXPRESSION” (Ionis Pharmaceuticals, Inc., priority 2008, published 2023).
Strand notation (5' to 3'): a small letter for the sugar, then the base; units joined by * are phosphorothioate-linked, units joined directly phosphodiester-linked; [ ] holds rarer units or linkages, { } end groups; capitals alone tell only the bases. e = 2'-O-(2-methoxyethyl) (MOE); [5mC] = 5-methylcytosine; d = 2'-deoxy (DNA)

How the values were obtained:
Format in all cases: cell-based
human Factor 11 mRNA [1] = assay: Dose-dependent inhibition of human Factor 11 in HepG2 cells, electroporation 0.7-20 uM (Example 4); details: for percent inhibition of Factor 11 at 0.7 μM / percent inhibition of Factor 11 at 2.2 μM / percent inhibition of Factor 11 at 6.7 μM / percent inhibition of Factor 11 at 20 μM: relative to untreated control cells
Method: (§1) The gapmers were also transfected via electroporation and their dose dependent inhibition of human Factor 11 mRNA was measured. Cells were plated at a density of 20,000 cells per well and transfected via electroporation with 0.7 μM, 2.2 μM, 6.7 μM, and 20 μM concentrations of antisense oligonucleotide, as specified in Table 10. After a treatment period of approximately 16 hours, RNA was isolated from the cells and Factor 11 mRNA levels were measured by quantitative real-time PCR. Human Factor 11 primer probe set RTS 2966 was used to measure mRNA levels. Factor 11 mRNA levels were adjusted according to total RNA content, as measured by RIBOGREEN. Results are presented as percent inhibition of Factor 11, relative to untreated control cells.

human Factor 11 mRNA [2] = assay: Dose-dependent inhibition of human Factor 11 in HepG2 cells, lipofectin 9.375-75 nM (Example 4); details: for percent inhibition of Factor 11 at 9.375 nM / percent inhibition of Factor 11 at 18.75 nM / percent inhibition of Factor 11 at 37.5 nM / percent inhibition of Factor 11 at 75 nM: relative to untreated control cells
Method: as §1, with “Cells” for “The gapmers were also transfected via electroporation and their dose dependent inhibition of human Factor 11 mRNA was measured. Cells”, “10,000” for “20,000”, “using lipofectin reagent” for “via electroporation”, “9.375 nM, 18.75 nM, 37.5 nM” for “0.7 μM, 2.2 μM, 6.7 μM,”, “75 nM” for “20 μM”, “9.” for “10.”

human Factor 11 mRNA [3] = assay: Antisense inhibition of human Factor 11 in HepG2 cells by microwalk gapmers, lipofectin, 75 nM (Example 3)
Outline: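 HepG2 cells (10,000/well) were transfected via lipofectin with 75 nM 20-mer MOE gapmers (phosphorothioate, 5-methyl-C) for about 24 h. Factor 11 mRNA was measured by qRT-PCR, normalized to RIBOGREEN total RNA, and given as percent inhibition versus untreated cells.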

[4] = HepG2 cells, lipofectin, gapmers targeted to nucleobases 1018 to 1042 of SEQ ID NO: 1
[5] = HepG2 cells, lipofectin, gapmers targeted to nucleobases 1275 to 1318 of SEQ ID NO: 1
[6] = HepG2, lipofectin, ~24 h, gapmers targeted to nucleobases 656 to 704 of SEQ ID NO: 1

Substance | IC50 (human Factor 11 mRNA [1]) [µM] | percent inhibition of Factor 11 at 0.7 μM (human Factor 11 mRNA [1]) [%] | percent inhibition of Factor 11 at 2.2 μM (human Factor 11 mRNA [1]) [%] | percent inhibition of Factor 11 at 6.7 μM (human Factor 11 mRNA [1]) [%] | percent inhibition of Factor 11 at 20 μM (human Factor 11 mRNA [1]) [%] | IC50 (human Factor 11 mRNA [2]) [µM] | percent inhibition of Factor 11 at 9.375 nM (human Factor 11 mRNA [2]) [%] | percent inhibition of Factor 11 at 18.75 nM (human Factor 11 mRNA [2]) [%] | percent inhibition of Factor 11 at 37.5 nM (human Factor 11 mRNA [2]) [%] | percent inhibition of Factor 11 at 75 nM (human Factor 11 mRNA [2]) [%] | % inhibition (human Factor 11 mRNA [3]; [4]) [%] | % inhibition (human Factor 11 mRNA [3]; [5]) [%] | % inhibition (human Factor 11 mRNA [3]; [6]) [%] | % inhibition (human Factor 11 mRNA [3]; HepG2 cells, lipofectin, gapmers targeted to nucleobases 1062 to 1091 of SEQ ID NO: 1) [%]
416908 (antisense eG*e[5mC]*eA*dA*d[5mC]*d[5mC]*dG*dG*dG*dA*dT*dG*dA*dT*dG*dA*dG*eT*eG*e[5mC]) [compound 416908] | 2.8 | 7 | 58 | 74 | 89 | 0.016 | 36 | 57 | 67 | 76 | 98 |  |  | 
416922 (antisense eG*e[5mC]*eA*d[5mC]*dA*dG*dT*dT*dT*d[5mC]*dT*dG*dG*d[5mC]*dA*dG*dG*e[5mC]*e[5mC]*eT) [compound 416922] | 1.7 | 35 | 51 | 77 | 91 | 0.036 | 14 | 25 | 49 | 75 |  | 94 |  | 
416923 (antisense eT*eG*e[5mC]*dA*d[5mC]*dA*dG*dT*dT*dT*d[5mC]*dT*dG*dG*d[5mC]*dA*dG*eG*e[5mC]*e[5mC]) [compound 416923] | 4 | 15 | 30 | 60 | 90 | 0.023 | 36 | 47 | 60 | 67 |  | 96 |  | 
416924 (antisense eG*eT*eG*d[5mC]*dA*d[5mC]*dA*dG*dT*dT*dT*d[5mC]*dT*dG*dG*d[5mC]*dA*eG*eG*e[5mC]) [compound 416924] | 4.1 | 22 | 40 | 63 | 70 | 0.036 | 25 | 38 | 56 | 59 |  | 96 |  | 
416926 (antisense eT*eG*eG*dT*dG*d[5mC]*dA*d[5mC]*dA*dG*dT*dT*dT*d[5mC]*dT*dG*dG*e[5mC]*eA*eG) [compound 416926] | 0.6 | 47 | 71 | 91 | 94 | 0.022 | 31 | 43 | 63 | 82 |  | 93 |  | 
416931 (antisense eG*eG*e[5mC]*dA*dT*dT*dG*dG*dT*dG*d[5mC]*dA*d[5mC]*dA*dG*dT*dT*eT*e[5mC]*eT) [compound 416931] | 5.1 | 7 | 24 | 60 | 82 | 0.022 | 44 | 39 | 57 | 71 |  | 96 |  | 
416941 (antisense eG*eG*e[5mC]*dA*dG*d[5mC]*dG*dG*dA*d[5mC]*dG*dG*d[5mC]*dA*dT*dT*dG*eG*eT*eG) [compound 416941] | 3 | 16 | 38 | 79 | 89 | 0.019 | 33 | 54 | 63 | 78 |  | 95 |  | 
416945 (antisense eA*eA*dT*dG*dT*d[5mC]*dT*dT*dT*dG*dT*dT*dG*d[5mC]*dA*eA*eG*e[5mC]*eG*e[5mC]) [compound 416945] | 0.6 | 48 | 70 | 81 | 88 | 0.024 | 34 | 45 | 62 | 65 |  |  | 94 | 
416969 (antisense eG*e[5mC]*d[5mC]*d[5mC]*dT*dT*d[5mC]*dA*dT*dG*dT*d[5mC]*dT*dA*dG*eG*eT*e[5mC]*e[5mC]*eA) [compound 416969] | 2.5 | 25 | 34 | 86 | 92 | 0.028 | 17 | 39 | 61 | 76 |  |  | 80 | 
416972 (antisense eT*eA*dT*dG*d[5mC]*d[5mC]*d[5mC]*dT*dT*d[5mC]*dA*dT*dG*dT*d[5mC]*eT*eA*eG*eG*eT) [compound 416972] | 4.3 | 25 | 30 | 48 | 88 | 0.026 | 32 | 40 | 60 | 69 |  |  | 90 | 
416973 (antisense eT*eT*dA*dT*dG*d[5mC]*d[5mC]*d[5mC]*dT*dT*d[5mC]*dA*dT*dG*dT*e[5mC]*eT*eA*eG*eG) [compound 416973] | 2.3 | 20 | 48 | 86 | 93 | 0.003 | 60 | 75 | 85 | 87 |  |  | 92 | 
416984 (antisense e[5mC]*eA*dA*d[5mC]*d[5mC]*dG*dG*dG*dA*dT*dG*dA*dT*dG*dA*eG*eT*eG*e[5mC]*eA) [compound 416984] | 1.1 | 43 | 54 | 88 | 90 | 0.022 | 26 | 50 | 62 | 81 | 89 |  |  | 
416985 (antisense eG*e[5mC]*dA*dA*d[5mC]*d[5mC]*dG*dG*dG*dA*dT*dG*dA*dT*dG*eA*eG*eT*eG*e[5mC]) [compound 416985] | 5.8 | 12 | 48 | 45 | 69 | 0.049 | 17 | 30 | 47 | 57 | 88 |  |  | 
416989 (antisense eG*eA*dG*dA*dT*dT*d[5mC]*dT*dT*dT*dG*dG*dG*d[5mC]*d[5mC]*eA*eT*eT*e[5mC]*e[5mC]) [compound 416989] | 1.3 | 32 | 65 | 88 | 94 | 0.026 | 18 | 41 | 62 | 83 |  |  |  | 88
